Data on 2 substances can be found in article PMC3877906, “Polypeptide Modulators of TRPV1 Produce Analgesia without Hyperthermia” (Marine Drugs, 2013).

“Also recorded” adds a separate entry of the source.

Series [1] relates to serine proteases. To be noted: ref [14],[16]; cited from earlier work. An excerpt: (§1) Polypeptide molecules typically have a greater specific activity at a particular receptor than do small molecule agonists, which makes them attractive for researchers and pharmaceutical companies. We have previously reported the isolation of a polypeptide modulator of TRPV1 from a homogenized extract of the sea anemone Heteractis crispa named APHC1 and its partial in vivo characterization. Two homological polypeptides (APHC2 and APHC3) were subsequently found in the same extract, but their biological activity has not yet been properly characterized. APHC1 and APHC3 are weak ...

Series [2] deals with TRPV1-dependent normal and diabetic bladder smooth muscle contractility. The note with it: ref [17]; cited from earlier work.
From the text: as §1

The test system of series [3] is TRPV1. In words: low pH-induced TRPV1 receptor currents/activation. It is filed as cell-based. To be noted: pH 5.5. An excerpt: The residues responsible for APHC’s activity are not determined. […] These differences in pharmacology were expressed further in the in vivo results.
The test system of series [4] is CD-1 mice. Put plainly: capsaicin-induced acute pain test. Type of series: in vivo, mouse. The note with it: n = 9; for pain-related behavior after capsaicin, reduction: 0.1 mg/kg i.v. 15 min before intraplantar capsaicin (3 µg/10 µL), "~44% of response"; for pain-related behavior after capsaicin, in words: 0.1 mg/kg i.v., vs saline. An excerpt:
Because capsaicin is a selective agonist of the TRPV1 receptor, we tested the efficacy of APHC1 and APHC3 as TRPV1 receptor antagonists using the capsaicin-induced pain model. Intraplantar injection of capsaicin evokes pain-related behavior such as licking and shaking the injected paw. TRPV1 knockout mice are insensitive to the capsaicin test and most antagonists that block capsaicin-induced currents in vitro also block capsaicin induced pain-related behavior in mice.
All experiments were performed in accordance with the recommendations in the “Principles of Laboratory Animal Care” and after approval by the Animal Care and Use Committee of the Branch of the IBCh RAS (Pushchino, Russia). Adult male CD-1 mice (Animal Breeding Facility Branch of Shemyakin-Ovchinnikov Institute of Bioorganic Chemistry, Russian Academy of Sciences, Pushchino, Russia) weighing 20–25 g were used. Animals were allowed to acclimate in the laboratory for at least five days. Mice were housed at room temperature (23 ± 2 °C) on a 12 h light–dark cycle with food and water available ad libitum. Polypeptides or vehicle was administered intravenously 15 min before testing.
The significance of the data was determined by analysis of variance (ANOVA) followed by Tukey’s test. Data are presented as mean ± S.E.
Intraplantar injection of capsaicin (3 µg/10 µL in 10% ethanol/90% saline) was used to elicit capsaicin-induced acute pain [36]. Immediately after the capsaicin injection, mice were placed inside glass cylinders for observation. Intraplantar injection of capsaicin evoked licking and shaking of the injected paw in mice. The duration of episodes of licking and paw shaking were recorded.

Series [5] deals with CD-1 mice. In words: open-field locomotor activity test. It is filed as in vivo, mouse. To be noted: 0.1 mg/kg i.v.; vs saline; n = 9 per group; 3 min recording. An excerpt: We conducted multiple in vivo experiments to assess the biological effects of APHC1 and APHC3, acting via modulation of TRPV1, on temperature sensation and inflammation. Possible negative effects of investigated components on the central nervous system were first excluded. We evaluated APHC1/3 in open-field locomotor activity tests as compounds capable of reducing locomotor activity could misrepresent results of other behavioral tests (particularly in pain models). […] There was no significant effect detected for either polypeptide at a dose of 0.1 mg/kg i.v. (Figure 3a).
All experiments were performed in accordance with the recommendations in the “Principles of Laboratory Animal Care” and after approval by the Animal Care and Use Committee of the Branch of the IBCh RAS (Pushchino, Russia). Adult male CD-1 mice (Animal Breeding Facility Branch of Shemyakin-Ovchinnikov Institute of Bioorganic Chemistry, Russian Academy of Sciences, Pushchino, Russia) weighing 20–25 g were used. […]
The significance of the data was determined by analysis of variance (ANOVA) followed by Tukey’s test. […]
Open-field activity was measured using a system that counts interruptions in a set of photo beams (OPTO—VARIMEX (Columbus Instruments, Columbus, OH, USA) and ATM3 Auto System using Auto-Track Version 4.2 software). Spontaneous locomotor activity was recorded for 3 min.

In series [6] the test system is TRPV1. Type of series: cell-based, rat. The note with it: for effect on capsaicin-induced TRPV1 response: whole-cell patch clamp, HEK-293. The method, then:
Figure 2 Effects of APHC3 on recombinant TRPV1 expressed in HEK-293 cells. (a) Resting current recorded from a TRPV1-positive cell held at −30 mV. […] Straight lines above the recording indicate application of APHC3 (Long line) and capsaicin (Short lines). The cells were stimulated and rinsed by rapid switching of the bath solution between the control solution and solutions containing the indicated compound. (b) Capsaicin responses in control and in the presence of the 300 nM APHC3 peptide. In each case, the control response was calculated as an average of two acid responses recorded just prior to peptide application. Averaged responses recorded in the presence of APHC3 were normalized to averaged control responses. Those are presented as the mean ± s.d. (n = 4). […] (c, d) Cell responses to the acidification of the bath solution from pH 7.4 to pH 5.5 in control and in the presence of the APHC3 applied at different concentrations as indicated. The experimental traces in (c) and in (d, upper trace) illustrate representative responses of EGFP/TRPV1-positive cells. The bottom trace in (d) represents responses of an EGFP/TRPV1-negative cell assayed simultaneously. (e) Acid responses recorded in the presence of APHC3 (90, 160 and 240 nM) normalized to a control response. The data are presented as the mean ± s.d. (n = 5–10). […] In each case, the control response was calculated as an average of the two acid responses recorded just prior to peptide application. The average of the two acid responses recorded after peptide application was calculated and normalized to the control response. Experimental traces in (c, d) were obtained from three different cells. The changes in bath solution pH (continuous lines) and APHC3 applications (thick straight lines) are shown above the fluorescence traces. Cells were stimulated and rinsed by a rapid replacement of the control bath solution with modified bath solution at pH 5.5 with or without APHC3.
HEK-293 cells were cultured in Dulbecco’s modified Eagle’s medium (DMEM) (Life Technologies, Grand Island, NY, USA) containing 10% (vol/vol) fetal bovine serum (Thermo Fisher Scientific, Palm Beach, FL, USA), glutamine (1%) and the antibiotic gentamicin (100 μg/mL) (Life Technologies, Grand Island, NY, USA). The pIRES2-EGFP plasmid harboring rat TRPV1 cDNA was transiently transfected into HEK-293 cells by replacing the growth medium in each well with a transfection mixture, containing 1.6 μg of DNA and 4 μL of Lipofectamine (Life Technologies, Grand Island, NY, USA) in 1 mL of serum-free DMEM. After incubating for 6 h, the transfection mixture was replaced with normal culture medium. Cells were assayed within 48–96 h after transfection.
Ion currents were recorded using an Axopatch 200A amplifier, with a DigiData 1322A interface, and pClamp8 software (Molecular Devices, Downingtown, PA, USA). External solutions were delivered by a gravity-driven perfusion system at a rate of 0.1 mL/s. Generally, the whole-cell patch clamp approach was used with recording pipettes containing (mM): 140 CsCl, 1 MgATP, 10 BAPTA, 10 HEPES-CsOH (pH 7.2). The basic bath solution included the following (mM): 140 NaCl, 5 KCl, 1 MgCl2, 1 CaCl2, 10 HEPES-NaOH (pH 7.4).
(In general: The patch-clamp technique gives a direct electrical read-out from membranes.)

In the case of “APHC1: polypeptide modulator of TRPV1 from sea anemone Heteractis crispa; homologous to BPTI/Kunitz type serine-protease inhibitors; produced recombinantly in E. coli (GSICLEPKVVGPCTAYFRRFYFDSETGKCTVFIYGGCEGNGNNFETLRACRAICRA; left off: TRX, end not stated, cleaved)”, the “inhibition of serine proteases” value in series [1] is recorded as “weak inhibitors”. Besides, in series [2], the “modulation of TRPV1-dependent normal and diabetic bladder smooth muscle contractility” value is given as “modulate”. Also, in series [3], the “effect on low pH-induced TRPV1 activation, in words” value was “unable to observe any effect”. For the same substance, in series [4], the “pain-related behavior after capsaicin, reduction” value is reported as ~ 44% and the “pain-related behavior after capsaicin, in words” value was “significantly reduced the behavioral response to capsaicin; also recorded: significantly reduced pain-related behavior”. In addition, the “travelled distance and rearing, open-field locomotor activity” value in series [5] is “did not significantly alter normal mouse behavior”. In addition, the “effect on capsaicin-induced TRPV1 response” value in series [6] (100 nM capsaicin) is listed as “partially blocked the capsaicin-induced response”.

Consider “APHC3: polypeptide from Heteractis crispa highly homologous to APHC1, differing in four of 56 amino acids; produced recombinantly in E. coli (GSICLEPKVVGPCTAYFPRFYFNSETGKCTPFIYGGCEGNGNNFETLRACRGICRA; left off: TRX, end not stated, cleaved)”, for which the “inhibition of serine proteases” value in series [1] was “weak inhibitors”. Further, the “modulation of TRPV1-dependent normal and diabetic bladder smooth muscle contractility” value in series [2] is on record as “modulate”. Further, the “effect on low pH-induced TRPV1 activation, in words” value in series [3] was “inhibited acid-induced (pH 5.5) activation of the receptor”. Moreover, in series [4], the “pain-related behavior after capsaicin, reduction” value is ~ 44% and the “pain-related behavior after capsaicin, in words” value was “significantly reduced the behavioral response to capsaicin; also recorded: significantly reduced pain-related behavior”. In addition, in series [5], the “travelled distance and rearing, open-field locomotor activity” value is listed as “did not significantly alter normal mouse behavior”. Further, the “inhibition of TRPV1 currents” value in series [6] (100 nM capsaicin, 300 nM APHC3, whole-cell, held at −30 mV, pH 7.4 bath, four experiments (n = 4)) is ~25%. In series [6] (concentrations more than 300 nM), the “inhibitory effect on capsaicin-induced currents” value came to 25%. For the same substance, the “effect on capsaicin-induced TRPV1 response” value in series [6] (100 nM capsaicin) was “partially blocked the capsaicin-induced response”.
